{"source": "patent US20120308554A1", "about": "“VEGF-D/VEGFR2/3-MEDIATED REGULATION OF DENDRITES” (UNIVERSITAT HEIDELBERG, priority 2011, published 2012)", "key": {"[1]": {"tested_on": "VEGFD, VEGF, VEGFC and VEGFR3", "test": "qRT-PCR analysis of shRNA knock-down of VEGF family members", "type": "cell-based, mice", "details": "hippocampal neurons infected with rAAV", "procedure": "Total RNA was isolated at DIV10 to DIV13 from hippocampal primary neuron cultures or isolated brain tissues with Rneasy Mini Kit (Qiagen, Hilden, Germany) including an optional Dnase I treatment at room temperature for 15 min according to manufacturer's instructions (Qiagen). 1.2 μg of extracted RNA was reverse transcribed into first strand cDNA using High Capacity cDNA Reverse Transcription kit (Applied Biosystems, Foster City, Calif.). Quantitative reverse transcriptase PCR (qRT-PCR) was done on an ABI7300 thermal cycler using Universal qRT-PCR master mix with TaqMan Gene Expression Assays for the indicated genes (Applied Biosystems). The following TaqMan Gene Expression Assays were used in this study: Gusb (Mm00446953_m1), cFos (Mm00487425_m1), VEGFD (Mm00438965_m1), VEGFC (Mm01202432_m1), VEGF (Mm01281449_m1), VEGFR3 (Mm01292618_m1), beta-actin (Mm00607939_s1), beta-2 microglobulin (Mm00437762_m1), CBP (Mm01342435_m1), p38 MAPK alpha (Mm00442497_m1), p38 MAPK beta (Mm00440955_m1). Expression of target genes was normalized against the expression of Gusb as endogenous control gene. Data were derived from at least 5 independent experiments. For expression of shRNAs, an rAAV vector containing the U6 promoter for shRNA expression and a CaMKII promoter driving mCherry expression was used. Three different sequences were obtained from Open Biosystems ([…] 2 and […] 3), cloned and tested for silencing efficiency. […] As control, a scramble version of this sequence ([…] ID NO: 2) and the vector carrying only the mCherry ([…]) were used. Shp38alpha [NT] ID NO: 3), shp38beta [NT] ID NO: 4), […] ID NO: 5), […] ID NO: 6) and […] ID NO: 7; sequence obtained from Open Biosystems www.openbiosystems.com) were also cloned into the same vector. CBP expression level was knocked down using a pool of four short interfering RNAs (siRNAs) targeting mouse CBP (Accell siRNA SMARTpool; Thermo Scientific Dharmacon). The SMARTpool is a group of four siRNAs that have been screened to reduce a variety of potential off-target effects including the inclusion of miRNA (microRNA)-like seed motifs. Silencing of GAPDH was measured using Accell mouse GAPDH as a positive control, and as a negative control, a non-targeting Accell mouse siRNA pool was used. In addition, a fluorescently labeled non-targeting Accell mouse siRNA was also used to evaluate penetration efficiency in hippocampal neurons via immunocytochemistry. Briefly, 500 nM siRNAs were supplemented in the serum-free culturing medium at DIV8, and mRNA levels were analyzed at DIV13."}, "hippocampal neurons [2]": {"tested_on": "hippocampal neurons", "test": "Morphometric analyses (total dendritic length, Sholl analysis, spine density) of cultured hippocampal neurons", "type": "cell-based, mice", "procedure": "Hippocampal neurons from newborn C57BL/6 mice were cultured as known in the art. Experiments were done after a culturing period of 10 to 14 days in vitro (DIV). DNA transfection was done on DIV8 using Lipofectamine 2000 (Invitrogen, San Diego, Calif.). For the studies on dendrite morphology, neurons were analyzed 4-5 days after transfection.\n(§1) For 3D Sholl Analysis, total dendritic length and spine morphology were calculated using Object-Image freeware software with a specific set of macros (written by Dr. E. Ruthazer, McGill University, Quebec). Briefly, a z-Stack acquisition was imported, calibrated in Object-Image and manually traced. Total dendritic length was then computed. For Sholl analysis, the shell interval was set at 5 μm. All analyses were performed blind. In all in vitro experiments, for each condition, a minimum of 12 neurons from three independent preparations was analyzed. For the Golgi staining quantifications of 20 neurons for each condition from 4 different injected animals per viral construct were traced and analyzed.\nHippocampal neurons were fixed with 4% paraformaldehyde at room temperature for 20 min. For immunostaining, primary and secondary antibodies were applied in GDB buffer (30 mM phosphate buffer [pH7.4] containing 0.2% gelatin, 0.5% Triton X-100, and 0.9 M NaCl). For the morphometric analyses, fluorescence images were acquired using a confocal laser-scanning microscope TCS SP2 (Leica, Mannheim, Germany) equipped with an inverted fluorescence microscope DM IRE2 (Leica) and Leica confocal scan software. All images were obtained with sequential acquisition setting at a resolution of 1024×1024 pixels. Each image was a z series projection of images taken at 1 μm intervals."}, "hippocampal neurons [3]": {"tested_on": "hippocampal neurons", "type": "cell-based, mice", "details": "hippocampal neurons infected with rAAV", "from_the_text": "E: Analysis of apoptosis of hippocampal cultures uninfected or infected with the indicated rAAVs. Values are expressed as percentage of the total number of cells analyzed."}, "C57BL/6 mice": {"tested_on": "C57BL/6 mice", "test": "Contextual fear conditioning", "type": "in vivo", "details": "versus rAAV-shSCR", "procedure": "(§2) rAAVs were delivered by stereotaxic injection into the right dorsal hippocampus of 2 months old male C57BL/6 mice. For the Golgi staining-based morphometric analysis, viral particles were unilaterally injected over a period of 20 min at the following coordinates relative to Bregma: anteroposterior, −2.1 mm; mediolateral, −1.4 mm; dorsoventral, −1.4 to −1.8 mm from the skull surface. For behavior experiments mice were injected bilaterally.\nThe behavioral experiments started three weeks after stereotaxic delivery of rAAVs. Mice were habituated to the experimental room and handled once a day for three consecutive days before testing started. Two different sets of mice were used for Morris water maze and contextual fear conditioning experiments. At the end of the experiments, virus infection was assessed.\nOn the training day, mice were placed into the conditioning chamber (23×23×35 cm; TSE, Bad Homburg, Germany) and received a 2 second, 0.5 mA scrambled foot shock 148 seconds after placement into the chamber. Mice were removed from the chamber 30 seconds after the shock. During testing, mice received one 5 minute exposure to the same context in the absence of foot shock 24 hours after conditioning. Freezing, defined as absence of movement except for respiration, was scored continuously during training and testing sessions."}, "CA1 pyramidal neurons": {"tested_on": "CA1 pyramidal neurons", "test": "Golgi staining-based morphometric analysis of CA1 neurons after stereotaxic rAAV delivery", "type": "in vivo, C57BL/6 mice", "details": "CA1 basal dendrites, 2.5 weeks after viral gene delivery", "procedure": "as §2, §1\nGolgi impregnation was performed using a Rapid Golgi Stain Kit (FD Neuro Technologies) according to the manufacturer's protocol. […]"}}, "data": [{"substance": "shVEGFD: shRNA targeting mouse VEGFD mRNA (GGGCTTCAGGAGCGAACAT; SEQ ID NO: 1), expressed from rAAV vector or plasmid with U6 promoter", "values": [{"measurement": "mRNA levels of respective targets", "setting": "[1]", "result": "reduced mRNA levels of their respective targets"}, {"measurement": "total dendritic length and dendritic complexity (Sholl analysis)", "setting": "hippocampal neurons [2]; neurons expressing the construct versus control constructs", "result": "less complex dendritic arbor and a reduction in total dendritic length"}, {"measurement": "spine density (number of spines/20 μm)", "setting": "hippocampal neurons [2]; transfected hippocampal neurons", "result": "6.52±0.51", "unit": "spines/20 μm"}, {"measurement": "cell death", "setting": "hippocampal neurons [3]", "result": "no increase in cell death"}, {"measurement": "basal exploratory activity and reaction to shock during training", "setting": "C57BL/6 mice", "result": "not different between the two groups"}, {"measurement": "freezing during the 24-hour test session", "setting": "C57BL/6 mice", "result": "significantly lower levels of freezing"}, {"measurement": "total length of dendrites and their complexity in vivo", "setting": "CA1 pyramidal neurons", "result": "reduced both the total length of dendrites and their complexity"}]}]}
